Source: patent publication US20080113900A1, “Pharmaceutical compositions and therapeutic applications for the use of a synthetic vitamin B12 derivative, glutathionylcobalamin” (priority 2006, published 2008)
Several values for one entry are separate records, joined by “and”; a condition that tells them apart may be missing. Equal entries are not always repeated.

How the values were obtained:
SK-HEP-1 cells [1] = assay: Protection of endothelial cells from homocysteine-induced cell death (MTS assay); type: cell-based, human
SK-HEP-1 cells [2] = assay: Protection of endothelial cells from H2O2-induced cell death (MTS assay); type: cell-based, human; set-up: key to Cell viability (MTS assay): cell viability as % survival; conditions: for Cell viability (MTS assay): SK-HEP-1, n = 6 replicates
Procedure: The effect of increasing concentrations of NACCbl and GSCbl to protect endothelial cells from the effect of H2O2 was assessed. […] Cell viability was determined by MTS® assay. […] FIG. 3 illustrates that NACCbl and GSCbl protect endothelial cells from the effect of H2O2. […] Cell viability was determined by MTS® assay. […] There was no difference between the protection afforded by NACCbl and that by GSCbl. Both required 100 μM to achieve >80% survival.

SK-HEP-1 cells [3] = assay: Protection from homocysteine-induced apoptosis, Caspase-3 activity (apoptosis assay); type: cell-based, human; conditions: 30 μM two hours, then 30 μM homocysteine two hours
Procedure: Caspase 3 is activated when cells undergo apoptosis. Caspase-3 assay is a standard for apoptosis assay. Homocysteine is a known inducer of apoptosis. Cells were cultured in 96-well plates for 24 hours and then treated with reagents under test conditions. Cytotoxic agents, H2O2 and etoposide were added to negative control wells. The assay was performed according to the manufacturer's protocol, as follows: Cells were re-suspended in 100 μl of clear media and 50 μl of Caspase-3 substrate solution was immediately added to each test well. […] Cell viability was determined by MTS® assay. […] Cell viability was determined by MTS® assay.

Hsp32 = Hsp32 gene expression (RT-PCR, densitometry); type: cell-based, human; conditions: SK-HEP-1; Sn (IX) protoporphyrin 25 μM; Quercitin 15 μM
Procedure: Cells were plated into 6-, 12-, or 24-well cell culture clusters, at 2×10^3, 2×10^5, or 1×10^5 cells per well and incubated until 90% confluent. Treatments were applied as above.
Following incubation, cells were subjected to mRNA extraction followed by cDNA synthesis for each sample under test. Polymerase chain reaction cDNA templates were prepared for simplex PCR protocol. PCR products were then visualized using a UV Transilluminator and images captured using a Kodak ID gel imaging system. Densitometry and statistical analysis was then performed on each gene expression band image using PSP® v 10.0 running under Windows XP®.
mRNA extraction was performed using the Quickprep micro mRNA Purification Kit. Following incubation of cells post-treatment, the media was removed from the cells, adherent cells were re-suspended in 0.4 ml extraction buffer and 0.8 ml elution buffer at 65° C. was added.
A reaction mixture was prepared in individual microcentrifuge tubes containing 2 cDNA synthesis beads, 32 μl of the mRNA solution and 1 μl of pd(N)6. This mixture was incubated at 37° C. in a water bath for 60 minutes. After incubation, 27 μl of RNase-free DEPC treated water was added to each tube to make a total volume 60 μl. cDNA samples were prepared in duplicate. Sample 1 was used immediately in RT-PCR protocol. Sample 2 was prepared for qPCR protocol by the addition of 150 μl of 95% ice-cold ethanol and stored at −20° C.
Microcentrifuge tubes from puReTaq™Ready-To-Go™ PCR Beads containing one PCR bead were labeled for each sample required. Added to the PCR bead were 17 μl of RNase-free DEPC treated water, 1 μl sense primer, 1 μl anti-sense primer and 5 μl of the cDNA solution. RT-PCR conditions were as follows: Hsp70 and β-actin, pre-treatment step, 94° C. for 1 minute, followed by denaturing at 92° C. for 1 minute, annealing at 60° C. for 1 minute and extension at 72° C. for 1 minute. Total cycles, 30, post-treatment was then carried out at 72° C. for 10 minutes. For Hsp32, pre-treatment step, 95° C. for 2 minutes, followed by denaturing at 94° C. for 30 seconds, annealing at 58° C. for 1 minute and extension at 72° C. for 1 minute. Total cycles 45, post treatment was then carried out at 72° C. for 10 minutes. Following RT-PCR, samples were stored at −20° C.
Gels were visualised on a UV Transilluminator. Photographs were stored using a Kodak Digital camera system fitted with a UV filter set connected to a PC. Images were then transferred to the Kodak ID gel imaging system. Densitometry was performed on each gene expression band using PSP™ v10 running under Windows XP®.
Experiments were conducted using Hsp32 and Hsp 70 gene expression as the basis for study. […] The densitometric data are presented as means ±SEM of n=3 separate experiments. *p<0.05 or **p<0.01, treatment vs. control.

U937 (monocytes) = assay: Survival of U937 cells at variable concentration of Hcy; type: cell-based; conditions: NACCbl 30 μM, NAC 75 μM, CNCbl 15 μM, folate 30 μM
Procedure: (§1) Additional cell studies were conducted using Jurkat (T-cells) and U937 (monocyte) cell lines. These experiments confirmed that other cell types are killed by homocysteine, although these cell lines are not as sensitive as the SK-HEP-1 cell line discussed in the experiments above and are thus more resistant to homocysteine. Cells were exposed to NACCbl 30 μM, NAC 75 μM, CNCbl 15 μM, and folate 30 μM. […] In these Figures, the monocytes are N=6 and concentrations are as follows: NACCbl 30 μM, NAC 75 μM, CNCbl 15 μM, Folate 30 μM

Jurkat (T-cells) = assay: Survival of Jurkat cells at variable concentration of Hcy; type: cell-based; conditions: NACCbl 30 μM, NAC 75 μM, CNCbl 15 μM, folate 30 μM
Procedure: as §1

SK-HEP-1 cells [4] = assay: Protection of endothelial cells from H2O2-induced cell death (MTS assay); type: cell-based, human; set-up: key to Cell viability (MTS assay): cell viability as % survival; conditions: for Cell viability (MTS assay): SK-HEP-1, n = 6 replicates; remark: listed apart in the source
SK-HEP-1 cells [5] = assay: NACCbl protection from homocysteine with inhibition of Hsp32/Hsp70 by Sn(IX) protoporphyrin, quercitin or siRNA (MTS assay)
[6] = 2 hours, then 25 μM H2O2 24 hours

With CC(=O)NC(C[S-])C(=O)O.CC1=C2N=C(C=C3N=C(C(C)=C4[N-]C(C(CC(N)=O)C4(C)CCC(=O)NCC(C)OP(=O)([O-])OC4C(CO)OC(n5cnc6cc(C)c(C)cc65)C4O)C4(C)N=C1C(CCC(N)=O)C4(C)CC(N)=O)C(CCC(N)=O)C3(C)C)C(CCC(N)=O)C2(C)CC(N)=O.[Co+3] [NACCbl, N-acetyl-L-cysteinylcobalamin] the “Absorbance at 490 nm, Mean” value (SK-HEP-1 cells [1]; as E80, Hcy conc. 100.000) was 1.685, the Survival (SK-HEP-1 cells [1]; compound 30 μM, 50 μM homocysteine) was roughly 60% and the “Protection compared with GSCbl” value (SK-HEP-1 cells [1]; concentrations below 12.5 μM, 30 μM homocysteine, p<0.001) was “significantly greater than that provided by GSCbl”. The “Protection from homocysteine-induced cell death” value (SK-HEP-1 cells [1]; pre-incubation 30 μM two hours, variable homocysteine two hours) was “protected cells from homocysteine-induced cell death”, the Survival (SK-HEP-1 cells [1]; ≧12.5 μM NACCbl, then 30 μM homocysteine 24 hours) was 80% and the “Difference between protection by NACCbl and by GSCbl” value (SK-HEP-1 cells [2]; 25 μM H2O2 24 hours) was “no difference”. The “Concentration required to achieve >80% survival” value (SK-HEP-1 cells [2]; [6]) was 100 µM, the “Preincubation concentration that protected cells from H2O2-induced cell death” value (SK-HEP-1 cells [2]; [6]) was no less than 2.0 µM and the “Cell viability (MTS assay)” value (SK-HEP-1 cells [2]; compound 30 μM two hours, then H2O2 200 μM a further two hours) was 5.2108 and 7.153 and 1.99 and 0.6632. For the same compound, the “Cell viability (MTS assay)” value (SK-HEP-1 cells [2]; compound concentration 6.25, 2 hours, then 25 μM H2O2 24 hours) was 42.8195 and 42.09 and 39.39 and 30.9 and 28 and 38.4058, the “Cell viability (MTS assay)” value (SK-HEP-1 cells [2]; compound concentration 12.5, 2 hours, then 25 μM H2O2 24 hours) was 45.26 and 41.7 and 44.99 and 45.5863 and 42.23 and 47.36 and the “Cell viability (MTS assay)” value (SK-HEP-1 cells [2]; compound concentration 25, 2 hours, then 25 μM H2O2 24 hours) was 46.9 and 46.77 and 45.26 and 42.69 and 45.72 and 48.16. The “Cell viability (MTS assay)” value (SK-HEP-1 cells [2]; compound concentration 100, 2 hours, then 25 μM H2O2 24 hours) was 61.5942 and 56.59 and 70.22 and 74.37 and 64.23 and 61.79, the “Cell viability (MTS assay)” value (SK-HEP-1 cells [2]; compound concentration 200, 2 hours, then 25 μM H2O2 24 hours) was 100.7246 and 99.7365 and 101.8445 and 107.3123 and 92.69 and 97.56 and the “Protection against apoptosis induced by homocysteine” value (SK-HEP-1 cells [3]) was “total protection”. The Hsp32 gene expression (Hsp32) was “induced”, the “Protection of U937 cells from death” value (U937 (monocytes)) was “more effective at protecting these cells from death than NAC, CN Cbl or folate” and the “Protection of Jurkat cells from death” value (Jurkat (T-cells)) was “more effective at protecting these cells from death than NAC, CN Cbl or folate”. For the same compound, the Survival (SK-HEP-1 cells [4]; NACCbl 30 μM, above 25 μM H2O2) was “below 60%”, the “Cell viability (MTS assay)” value (SK-HEP-1 cells [4]; compound 30 μM two hours, then H2O2 0 μM) was 102.9844 and 100.8053 and 103.2212 and 107.9583 and 101.8948 and 98.44 and the “Cell viability (MTS assay)” value (SK-HEP-1 cells [4]; compound 30 μM two hours, then H2O2 0.781 μM a further two hours) was 93.46 and 102.7949 and 99.24 and 101.3738 and 103.2686 and 95.45. For the same compound, the “Cell viability (MTS assay)” value (SK-HEP-1 cells [4]; compound 30 μM two hours, then H2O2 1.56 μM a further two hours) was 98.53 and 91.38 and 98.72 and 100.1421 and 89.77 and 96.12, the “Cell viability (MTS assay)” value (SK-HEP-1 cells [4]; compound 30 μM two hours, then H2O2 3.125 μM a further two hours) was 88.2 and 93.18 and 92.89 and 99.76 and 92.42 and 91.8 and the “Cell viability (MTS assay)” value (SK-HEP-1 cells [4]; compound 30 μM two hours, then H2O2 6.25 μM a further two hours) was 88.2 and 87.59 and 82.14 and 81.57 and 78.07 and 77.12. For the same compound, the “Cell viability (MTS assay)” value (SK-HEP-1 cells [4]; compound 30 μM two hours, then H2O2 12.5 μM a further two hours) was 77.17 and 76.98 and 76.6 and 67.12 and 77.6883 and 74.14, the “Cell viability (MTS assay)” value (SK-HEP-1 cells [4]; compound 30 μM two hours, then H2O2 25 μM a further two hours) was 67.12 and 66.75 and 61.87 and 56.18 and 55.3766 and 55.95 and the “Cell viability (MTS assay)” value (SK-HEP-1 cells [4]; compound 30 μM two hours, then H2O2 50 μM a further two hours) was 50.21 and 48.27 and 44.955 and 45.71 and 48.18 and 44.58. For the same compound, the “Cell viability (MTS assay)” value (SK-HEP-1 cells [4]; compound 30 μM two hours, then H2O2 100 μM a further two hours) was 29.99 and 23.97 and 19.56 and 18.901 and 17.53 and 20.89, the “Cell viability (MTS assay)” value (SK-HEP-1 cells [4]; compound concentration 1.562, 2 hours, then 25 μM H2O2 24 hours) was 4.677 and 1.845 and 5.27 and 1.647 and 4.348 and 5.599 and the “Cell viability (MTS assay)” value (SK-HEP-1 cells [4]; compound concentration 3.125, 2 hours, then 25 μM H2O2 24 hours) was 26.8116 and 19.5 and 35.84 and 30.5 and 35.24 and 33. For the same compound, the “Cell viability by MTS assay (FIG. 11), replicates 1-6” value (“Cell viability by MTS assay” for short) (SK-HEP-1 cells [5]; SK-HEP-1, NACCbl 30 μM two hours with or without Sn(IX)PP/quercetin, then Hcy conc. 200 two hours, label Hcy = Hcy alone) was 1.378 and 1.167 and 1.33 and 1.456 and 1.491 and 1.537, the “Reduction of the protection by NACCbl on inhibition of Hsp32” value (SK-HEP-1 cells [5]; Sn(IX) protoporphyrin or siRNA, p<0.001) was 10-20% and the “Cell viability by MTS assay” value (SK-HEP-1 cells [5]; as E45, Hcy conc. 0) was 2.885 and 2.698 and 2.821 and 2.771 and 2.691 and 2.7. The “Cell viability by MTS assay” value (SK-HEP-1 cells [5]; as E45, Hcy conc. 1.78) was 2.647 and 2.551 and 2.789 and 2.89 and 2.549 and 2.611, the “Cell viability by MTS assay” value (SK-HEP-1 cells [5]; as E45, Hcy conc. 3.125) was 2.453 and 2.338 and 2.36 and 2.317 and 2.418 and 2.535 and the “Cell viability by MTS assay” value (SK-HEP-1 cells [5]; as E45, Hcy conc. 6.25) was 2.41 and 2.4 and 2.322 and 2.201 and 2.115 and 2.187. For the same compound, the “Cell viability by MTS assay” value (SK-HEP-1 cells [5]; as E45, Hcy conc. 12.5) was 2.21 and 2.11 and 2.045 and 2.065 and 2.101 and 2.324, the “Cell viability by MTS assay” value (SK-HEP-1 cells [5]; as E45, Hcy conc. 25) was 2.1 and 2.19 and 1.879 and 1.937 and 1.779 and 1.837 and the “Cell viability by MTS assay” value (SK-HEP-1 cells [5]; as E45, Hcy conc. 50) was 1.678 and 1.832 and 1.881 and 1.73 and 1.74 and 1.855. For the same compound, the “Cell viability by MTS assay” value (SK-HEP-1 cells [5]; as E45, Hcy conc. 100) was 1.678 and 1.592 and 1.694 and 1.773 and 1.732 and 1.639, the “Protection by NACCbl on inhibition of both Hsp32 and Hsp70 together” value (SK-HEP-1 cells [5]; chemically and directly) was “totally removed protection” and the “Reduction of the protection by NACCbl on inhibition of Hsp70” value (SK-HEP-1 cells [5]; quercitin or siRNA, p<0.001) was 20-40%.
